Test system: Cancer cells
Experiment: MTT assay-A positive control group
Format: cell-based
Conditions: Triton X100 1%, positive control C2
Procedure: MTT (3-(4,5 dimethylthiazole-2-yl)-2,5-diphenyl tetrazolium bromide) is a proven cell viability indicator and this yellow colored tetrazolium salt gets reduced to purple colored formazan crystals by mitochondrial reductase enzyme seen only in metabolically active cells. It measures the cell proliferation rate and the reduction in cell viability when metabolic events lead to apoptosis or necrosis. Triplicate samples were analyzed and cell viability was calculated in percentage with respect to negative control group as follows Cell viability (%)=(Nt/Nc)×100 Nt is the absorbance of cells treated with sample and Nc is the absorbance of untreated cells (negative control group-Cell culture medium alone). The cell survival rate of negative control group is 100%. The results of MTT assays are shown in Figures, Wherein, the horizontal axis represents concentration of test sample and the vertical axis represents the cell survival rate. […]
Cancer cells were incubated for 2 days. […] Optical density of the solution was measured at a wavelength of 570 nm using a Beckmann Coulter Elisa plate reader (BioTek Power Wave XS). […]

Triton X100
cells killed: more than 90%

Source: patent US9789153B2, “Composition for preventing cancer and treating cancer and intensifying the effects of other anticancer drugs” (priority 2014, dated 2017)
